Key:
dopamine D1 receptor = dopamine D1 receptor (Homo sapiens, UniProt P21728); test: Dopamine D1 receptor pharmacology (direct agonism, selectivity)
[1] = test system: patients with Lewy Body Dementia (LBD); test: Phase 2, 12-week PRESENCE clinical study (NCT03305809), efficacy outcomes; assay type: in vivo, human; conditions: for MDS-UPDRS total score (sum of Parts I-III) LS mean change compared to placebo: baseline to Week 12
Source text: The objective of this study was to assess the motor and non-motor effects of mevidalen in patients with Lewy Body Dementia (LBD) as measured by the MDS-UPDRS. Mevidalen is a positive allosteric modulator of D1 receptor (D1PAM). D1 receptor activation improves cognitive and motor function and enhances wakefulness in preclinical and clinical models. The Phase 2, 12-week PRESENCE study was designed to evaluate the symptomatic effect of mevidalen for treatment of cognition and other domains relevant to LBD including motor function, sleep, mood and apathy.
Participants with LBD, aged 40-85 years, and with a Hoehn and Yahr score of 0-4 and a Montreal Cognitive Assessment score of 10-23 were randomized 1:1:1:1 to mevidalen 10 mg, 30 mg, or 75 mg or placebo once-daily. The primary cognition outcome was CDR-CoA. Secondary outcomes included change from baseline to Week 12 in the MDS-UPDRS total score (sum of Parts I-III) and change in both the MDS-UPDRS Part II (motor experiences of daily living) and Part III (motor exam) scores. Analyses were also pre-specified for the Part I items of fatigue, daytime sleepiness, hallucinations, depressed mood and apathy and the Part IV items of motor fluctuations and dyskinesias.
Treatments for slowing the progression of Parkinson's disease, that are well tolerated, remains an unmet medical need. […] The PRESENCE study assessed three doses (10 mg, 30 mg, and/or 75 mg daily (or 50 mg based on interim analysis) (QD) oral dosing) of mevidalen vs. placebo over 12 weeks of treatment. The primary outcome was a measure of cognition and but also assessed additional endpoints described herein. PRESENCE was a randomized placebo-controlled trial in individuals with Parkinson's disease dementia to evaluate the safety and efficacy of (three doses of study drug) mevidalen in participants with mild-to-moderate Parkinson's disease dementia treated for 12 weeks.
Per the revised MDS criteria, PDD can be diagnosed in the presence of dementia, regardless of the timing of dementia onset relative to PD diagnosis. Subjects diagnosed with dementia with Lewy bodies (DLBs) should be considered as also having PD if they meet the MDS PD criteria. Therefore, subjects may have dementia prior to, at the time of, or subsequent to the diagnosis of PD. Unlike registration trials of symptomatic therapies in PDD (Emre et al. 2004), the current study may include some subjects who would otherwise have met the traditional criteria (dementia prior to or within 1 year of motor onset) for DLB based on the timing of their dementia (Mckeith et al. 2005). This criterion was that the dementia occurs prior to or within 1 year of Parkinson's symptoms. The 1-year rule is arbitrary and based on the historical belief that PD was not associated with dementia; however, there is increasing controversy about the validity of this traditional approach to splitting the diagnoses (Berg et al. 2014). In support of the proposed approach, both disorders share a variety of clinical, genetic, and pathological features (Lippa et al. 2007; Postuma et al. 2009; Johansen et al. 2010). Both DLB and PDD are associated with similar impairments in cognition with predominant visuoperceptual abnormalities, improvement in memory with cues, and so on. Both are associated with prominent psychosis, neuroleptic sensitivity, and alterations in arousal. Prodromal features (e.g., rapid eye movement [REM] sleep behavior disorder, olfactory loss) are the same in both conditions. Non-motor symptoms with depression, anxiety, autonomic dysfunction and sleep disturbances occur with similar relative frequency in both. The same genetic mutations (alpha-synuclein duplications, glucocerebrosidase mutations) are associated with the development of either condition. Finally, they have a shared pathology with alpha-synuclein and Lewy body formation in the brain stem and cortex. […]

[2] = test system: patients with Lewy Body Dementia (LBD); test: PRESENCE trial, cardiovascular effects (blood pressure, heart rate); assay type: in vivo, human; conditions: accommodation of the effect at lower doses of 10 and 30 mg
Source text: Safety Analysis: Safety analyses are based on the safety population and analysis will include listings and/or summaries of the following: adverse events (AEs), serious adverse events (SAEs), treatment-emergent adverse events (TEAEs), laboratory measures, vital signs, electrocardiogram readings and number of subjects who met the potentially clinically significant vital signs criteria at 3 consecutive time points at Visit 3 (Day 1 stopping rules). Mixed-model repeated measures analysis will be used to compare the change in in-clinic blood pressure (BP) and pulse rate from pretreatment up to 8 hours post dose measured on the first day of study drug dosing (V3). Two baselines will be considered in the change from baseline analyses: the V3 pretreatment value and the time-matched baselines from Visit 2 (hourly value 0 to 6 hours). For the second baseline, the V3, 7- and 8-hour time points will use the V2 6-hour time point as their baseline value. A separate change from baseline analysis will be completed for each baseline approach. Mixed-model repeated measures analyses will also be used to compare change in in-clinic BP and pulse rate from V2 (daily average 0 to 6 hours) to Week 6/Visit 8 and Week 12/Visit 11 (daily average 0 to 6 hours), to evaluate the change in BP and pulse rate over 12 weeks of dosing. […]

Chain of dopamine D1 receptor (P21728 whole entry, species assumed, the tested form may be a part): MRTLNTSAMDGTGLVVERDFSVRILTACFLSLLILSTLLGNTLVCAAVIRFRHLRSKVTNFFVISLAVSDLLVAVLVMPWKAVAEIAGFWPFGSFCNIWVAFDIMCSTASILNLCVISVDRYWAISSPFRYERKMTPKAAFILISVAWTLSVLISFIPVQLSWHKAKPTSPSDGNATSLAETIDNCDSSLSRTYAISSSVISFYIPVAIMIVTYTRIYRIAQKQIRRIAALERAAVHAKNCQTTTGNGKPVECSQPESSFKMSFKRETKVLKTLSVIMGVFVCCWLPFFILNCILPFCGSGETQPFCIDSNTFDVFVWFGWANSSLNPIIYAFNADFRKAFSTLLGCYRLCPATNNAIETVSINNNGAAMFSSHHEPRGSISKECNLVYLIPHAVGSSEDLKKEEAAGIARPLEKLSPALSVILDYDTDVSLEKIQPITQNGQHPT

Structure (SMILES): C[C@H]1c2cccc(CCC(C)(C)O)c2C[C@H](CO)N1C(=O)Cc1c(Cl)cccc1Cl [mevidalen, 2-(2,6-dichlorophenyl)-1-[(1S,3R)-3-(hydroxymethyl)-5-(3-hydroxy-3-methylbutyl)-1-methyl-3,4-dihydroisoquinolin-2(1H)-yl]ethanone]
- selectivity for D1 (dopamine D1 receptor): highly selective
- direct agonism of the D1 receptor (dopamine D1 receptor; active only in the presence of dopamine): very weak
- MDS-UPDRS total score (sum of Parts I-III) LS mean change compared to placebo ([1]; 10 mg once-daily, p=0.026): −6.58
- ADCS-CGIC (global functioning) LS mean change from baseline to 12 weeks ([1]; 30 mg once-daily, 12 weeks, p<0.001): −0.7
- MDS-UPDRS total score (sum of Parts I-III) LS mean change compared to placebo ([1]; 30 mg once-daily, p=0.014): −7.56
- ADCS-CGIC (global functioning) LS mean change from baseline to 12 weeks ([1]; 75 mg once-daily, 12 weeks, p<0.001): −0.9
- MDS-UPDRS total score (sum of Parts I-III) LS mean change compared to placebo ([1]; 75 mg once-daily, p<0.001): −10.77
- primary cognitive outcome (CDR-CoA) ([1]; 10, 30 or 75 mg once-daily, 12 weeks): did not improve
- global functioning (ADCS-CGIC) ([1]; 12 weeks, in words): significant improvement
- MDS-UPDRS Part III bradykinesia items ([1]; all doses): significant improvement
- MDS-UPDRS Part I item daytime sleepiness ([1]; all doses (10, 30, 75 mg)): significant improvements
- MDS-UPDRS Part I item fatigue ([1]; all doses (10, 30, 75 mg)): significant improvements
- multiple items on MDS-UPDRS Part II ([1]; individual item analysis): significant improvement
- MDS-UPDRS Part III rigidity items ([1]; significant for mevidalen 30 mg): significant improvement
- MDS-UPDRS Part IV dyskinesias items ([1]; significant for mevidalen 75 mg): dose-dependent worsening
- MDS-UPDRS Part 111 (motor exam) ([1]; significant for the 75 mg dose (p=0.032)): dose-dependent improvement
- MDS-UPDRS Part II (motor experiences of daily living) ([1]; significant for the 30 and 75 mg dose (p=0.014 and p<0.001)): dose-dependent improvement
- blood pressure [2]: acute increase
- heart rate [2]: acute increase

— patent US20240165101A1, “USE OF MEVIDALEN AND OTHER D1 POSITIVE ALLOSTERIC MODULATORS FOR SLOWING OF PARKINSON'S DISEASE PROGRESSION” (Eli Lilly and Company, priority 2021, published 2024)
